In patent US8846928B2 (Portola Pharmaceuticals, Inc., priority 2010, dated 2014) one finds IC50 data, which are given here for 30 compounds.

A value given as a limit tells only on which side of the number the result lay.

The assay addresses T1, full length active recombinant SYK enzyme (Homo sapiens, UniProt P43405).
T1 construct: full length active recombinant SYK enzyme (Millipore, Calif.); purchased Millipore
In words: Inhibition of Syk tyrosine phosphorylation activity (LANCE TR-FRET kinase assay). It is filed as biochemical. As to the method:
Inhibition of Syk Tyrosine Phosphorylation Activity
Potency of candidate molecules for inhibiting Syk tyrosine phosphorylation activity is assessed by measuring the ability of a test compound to inhibit Syk-mediated tyrosine phosphorylation of a Syk-specific substrate.
SYK tyrosine phosphorylation activity is measured using the LANCE™ Technology developed by Perkin Elmer Life and Analytical Sciences (Boston, Mass.). LANCE™ refers to homogeneous time resolved fluorometry applications using techniques such as time-resolved fluorescence resonance energy transfer assay (TR-FRET) (see generally for procedures in Perkin Elmer Application Note—How to Optimize a Tyrosine Kinase Assay Using Time Resolved Fluorescence-Based LANCE Detection, wwww.perkinelmer.com/lifesciences). The assay principle involves detection of a phosphorylated substrate using energy transfer from a phosphospecific europium-labeled antibody to streptavidin-allophycocyanin as an acceptor.
To test the ability of candidate molecules to inhibit SYK tyrosine phosphorylation activity, molecules are reconstituted in 30% DMSO and serially diluted 1:3 with the final dilution containing DMSO in the absence of the candidate molecule. The final DMSO concentration in the assay is 3%. Kinase assays are performed as a two part reaction. […] The second reaction involves termination of the kinase reaction and the simultaneous addition of the detection reagents—europium-labeled anti-phosphotyrosine reagent (Eu-W1024-PY100, Perkin Elmer, Boston, Mass.) and Streptavidin-Allophycocyanin detection reagent (SA-APC, Prozyme, Calif.). The kinase reaction is performed in a black U-bottom 96-well microtitre plate. The final reaction volume is 50 μL and contains a final concentration of 1 nM active SYK enzyme, 550 nM SYK-substrate, and 100 μM ATP diluted in a buffer containing 50 mM Tris pH 7.5, 5 mM MgCl2, and 1 mM DTT. The reaction is allowed to proceed for 1 hour at room temperature. The quench buffer contains 100 mM Tris pH 7.5, 300 mM NaCl2, 20 mM EDTA, 0.02% Brij35, and 0.5% BSA. The detection reagents are added to the reaction mixture at the following dilutions-1:500 for Eu-W1024-PY100 and 1:250 for SA-APC. The kinase reaction is terminated by the addition of 50 μL quench buffer containing the detection reagents. The detection is allowed to proceed for 1 hr at room temperature. Detection of the phosphorylated substrate in the absence and presence of inhibitors is measured in the TR-FRET instrument, Analyst HT (Molecular Probes, Sunnyvale, Calif.) and the condition for measurements are set up using CriterionHost Release 2.0 (Molecular Probes, Sunnyvale, Calif.). The settings used are a follows: excitation 360 nm, emission 665-7.5 nm, beam splitter 350 nm 50/50, flash 100 pulses, delay 60 us, integration 400 us, z-height 2 mm. […] IC50s were derived by non-linear regression analysis. […]

As to `NC(=O)c1cc(F)c(N[C@@H]2CCCC[C@@H]2N)nc1Nc1cccc(-n2cccn2)c1` [Example 45, 2-(3-(1H-pyrazol-1-yl)phenylamino)-6-((1R,2S)-2-aminocyclohexylamino)-5-fluoronicotinamide], the half-inhibitory concentration (IC50) lay in the range of 1 to 10 nM.

With `NC(=O)c1cc(F)c(N[C@@H]2CCCC[C@@H]2N)nc1Nc1cccc(-n2ccnc2)c1` [Example 46, 2-(3-(1H-imidazol-1-yl)phenylamino)-6-((1R,2S)-2-aminocyclohexylamino)-5-fluoronicotinamide], the concentration for half-maximal inhibition (IC50) fell in the range of 1 to 10 nM. The value for `NC(=O)c1cc(F)c(N[C@@H]2CCCC[C@@H]2N)nc1Nc1cccc(N2CCCC2)c1` [Example 47, 6-((1R,2S)-2-aminocyclohexylamino)-5-fluoro-2-(3-(pyrrolidin-1-yl)phenylamino)nicotinamide] was 1 to 10 nM; that for `NC(=O)c1cc(F)c(N[C@@H]2CCCC[C@@H]2N)nc1Nc1cccc(N2CCOCC2)c1` [Example 48, 6-((1R,2S)-2-aminocyclohexylamino)-5-fluoro-2-(3-morpholinophenylamino)nicotinamide] was 10 to 100 nM. `NC(=O)c1cc(F)c(N[C@@H]2CCCC[C@@H]2N)nc1Nc1ccc(-n2nccn2)cc1` [Example 49, 2-(4-(2H-1,2,3-triazol-2-yephenylamino)-6-(1R,2S)-2-aminocyclohexylamino)-5-fluoronicotinamide]: the IC50 fell in the range of 10 to 100 nM. The figure for `NC(=O)c1cc(F)c(N[C@@H]2CCCC[C@@H]2N)nc1Nc1ccc(-n2cncn2)cc1` [Example 50] is 1 to 10 nM; for `NC(=O)c1cc(F)c(N[C@@H]2CCCC[C@@H]2N)nc1Nc1ccc(-n2ccnc2)cc1` [Example 51, 2-(4-(1H-imidazol-1-yl)phenylamino)-6-((1R,2S)-2-aminocyclohexylamino)-5-fluoronicotinamide] it is 1 to 10 nM; for `NC(=O)c1cc(F)c(N[C@@H]2CCCC[C@@H]2N)nc1Nc1ccc(-n2cccn2)cc1` [Example 52, 2-(4-(1H-pyrazol-1-yl)phenylamino)-6-((1R,2S)-2-aminocyclohexylamino)-5-fluoronicotinamide] it is 1 to 10 nM. Take `NC(=O)c1cc(F)c(N[C@@H]2CCCC[C@@H]2N)nc1Nc1ccc(N2CCCC2)cc1` [Example 53, 6-((1R,2S)-2-aminocyclohexylamino)-5-fluoro-2-(4-(pyrrolidin-1-yl)phenylamino)nicotinamide]: the IC50 lay in the range of 10 to 100 nM. For the compound `NC(=O)c1cc(F)c(N[C@@H]2CCCC[C@@H]2N)nc1Nc1ccc(N2CCOCC2)cc1` [Example 54, 6-((1R,2S)-2-aminocyclohexylamino)-5-fluoro-2-(4-morpholinophenylamino)nicotinamide], the concentration for half-maximal inhibition (IC50) lay in the range of 10 to 100 nM. The value for `NC(=O)c1cc(F)c(N[C@@H]2CCCC[C@@H]2N)nc1Nc1cccc(-c2ncccn2)c1` [Example 55, 6-((1R,2S)-2-aminocyclohexylamino)-5-fluoro-2-(3-(pyrimidin-2-yl)phenylamino)nicotinamide] was 1 to 10 nM.

With `NC(=O)c1cc(F)c(N[C@@H]2CCCC[C@@H]2N)nc1Nc1cccc(-c2ccncn2)c1` [Example 56, 6-((1R,2S)-2-aminocyclohexylamino)-5-fluoro-2-(3-(pyrimidin-4-yl)phenylamino)nicotinamide], the IC50 is 1 to 10 nM. Regarding `NC(=O)c1cc(F)c(N[C@@H]2CCCC[C@@H]2N)nc1Nc1cccc(-c2cncnc2)c1` [Example 57, 6-((1R,2S)-2-aminocyclohexylamino)-5-fluoro-2-(3-(pyrimidin-5-yl)phenylamino)nicotinamide], the IC50 was in the range of 1 to 10 nM. As for `NC(=O)c1cc(F)c(N[C@@H]2CCCC[C@@H]2N)nc1Nc1ccc(-c2ncccn2)cc1` [Example 58, 6-((1R,2S)-2-aminocyclohexylamino)-5-fluoro-2-(4-(pyrimidin-2-yl)phenylamino)nicotinamide], the IC50 was in the range of 1 to 10 nM. Take `NC(=O)c1cc(F)c(N[C@@H]2CCCC[C@@H]2N)nc1Nc1ccc(-c2ccncn2)cc1` [Example 59, 6-(1R,2S)-2-aminocyclohexylamino)-5-fluoro-2-(4-(pyrimidin-4-yephenylamino)nicotinamide]: the IC50 was 1 to 10 nM. Consider `NC(=O)c1cc(F)c(N[C@@H]2CCCC[C@@H]2N)nc1Nc1ccc2ncsc2c1` [Example 60, 6-((1R,2S)-2-aminocyclohexylamino)-2-(benzo[d]thiazol-6-ylamino)-5-fluoronicotinamide], for which the concentration for half-maximal inhibition (IC50) is below 1 nM. As to `NC(=O)c1cc(F)c(N[C@@H]2CCCC[C@@H]2N)nc1Nc1ccc2nccn2c1` [Example 61, 6-((1R,2S)-2-aminocyclohexylamino)-5-fluoro-2-(imidazo[1,2-a]pyridin-6-ylamino)nicotinamide], the 50% inhibitory concentration (IC50) was 1 to 10 nM. On to `NC(=O)c1cc(F)c(N[C@@H]2CCCC[C@@H]2N)nc1Nc1ccn2ccnc2c1` [Example 62, 6-((1R,2S)-2-aminocyclohexylamino)-5-fluoro-2-(imidazo[1,2-a]pyridin-7-ylamino)nicotinamide], for which the IC50 is 1 to 10 nM. Take `Cn1ccc2cc(Nc3nc(N[C@@H]4CCCC[C@@H]4N)c(F)cc3C(N)=O)ccc21` [Example 63, 6-((1R,2S)-2-aminocyclohexylamino)-5-fluoro-2-(1-methyl-1H-indol-5-ylamino)nicotinamide]: the IC50 is 1 to 10 nM. Consider `Cn1ccc2c(Nc3nc(N[C@@H]4CCCC[C@@H]4N)c(F)cc3C(N)=O)cccc21` [Example 64, 6-((1R,2S)-2-aminocyclohexylamino)-5-fluoro-2-(1-methyl-1H-indol-4-ylamino)nicotinamide], for which the IC50 was below 1 nM. Consider `Cn1cc2c(Nc3nc(N[C@@H]4CCCC[C@@H]4N)c(F)cc3C(N)=O)cccc2n1` [Example 65, 6-((1R,2S)-2-aminocyclohexylamino)-5-fluoro-2-(2-methyl-2H-indazol-4-ylamino)nicotinamide], for which the IC50 was in the range of 100 to 1000 nM. With `NC(=O)c1cc(F)c(N[C@@H]2CCCC[C@@H]2N)nc1Nc1ccc2ncccc2c1` [Example 66, 6-((1R,2S)-2-aminocyclohexylamino)-5-fluoro-2-(quinolin-6-ylamino)nicotinamide], the concentration for half-maximal inhibition (IC50) was below 1 nM. Take `NC(=O)c1cc(F)c(N[C@@H]2CCCC[C@@H]2N)nc1Nc1ccc2cnccc2c1` [Example 67, 6-((1R,2S)-2-aminocyclohexylamino)-5-fluoro-2-(isoquinolin-6-ylamino)nicotinamide]: the 50% inhibitory concentration (IC50) was below 1 nM. Take `NC(=O)c1cc(F)c(N[C@@H]2CCCC[C@@H]2N)nc1Nc1ccc2ccncc2c1` [Example 68, 6-((1R,2S)-2-aminocyclohexylamino)-5-fluoro-2-(isoquinolin-7-ylamino)nicotinamide]: the IC50 was in the range of 1 to 10 nM. With `NC(=O)c1cc(F)c(N[C@@H]2CCCC[C@@H]2N)nc1Nc1ccc2cccnc2c1` [Example 69, 6-((1R,2S)-2-aminocyclohexylamino)-5-fluoro-2-(quinolin-7-ylamino)nicotinamide], the IC50 is 1 to 10 nM.

Turning to `NC(=O)c1cc(F)c(N[C@@H]2CCCC[C@@H]2N)nc1Nc1cnc2ccccc2c1` [Example 70, 6-((1R,2S)-2-aminocyclohexylamino)-5-fluoro-2-(quinolin-3-ylamino)nicotinamide], the IC50 was 1 to 10 nM. Regarding `NC(=O)c1cc(F)c(N[C@@H]2CCCC[C@@H]2N)nc1Nc1cncc2ccccc12` [Example 71, 6-((1R,2S)-2-aminocyclohexylamino)-5-fluoro-2-(isoquinolin-4-ylamino)nicotinamide], the half-inhibitory concentration (IC50) fell in the range of 1 to 10 nM. The figure for `NC(=O)c1cc(F)c(N[C@@H]2CCCC[C@@H]2N)nc1Nc1ccnc2ccccc12` [Example 72] is 1 to 10 nM; for `NC(=O)c1cc(F)c(N[C@@H]2CCCC[C@@H]2N)nc1Nc1cccc2ncccc12` [Example 73, 6-((1R,2S)-2-aminocyclohexylamino)-5-fluoro-2-(quinolin-5-ylamino)nicotinamide] it is 1 to 10 nM; for `NC(=O)c1cc(F)c(N[C@@H]2CCCC[C@@H]2N)nc1Nc1cccc2cnccc12` [Example 74, 6-((1R,2S)-2-aminocyclohexylamino)-5-fluoro-2-(isoquinolin-5-ylamino)nicotinamide] it is 1 to 10 nM.
